# Reference: US20090093460A1, “Compositions” (AstraZeneca AB, priority 2003, published 2009)
# Where two headings read alike, the source gives them in different places.
# Tests used:
# rats [1] = assay: D-amphetamine locomotor activity test; type: in vivo, rat; details: freebase, s.c.
# Excerpt: The methods and procedures used can be found in Warawa et al., J. Med. Chem., 2001, 44 (3), 372-389, and are incorporated herein by reference.
# Adrenergic α2B = biological target: T1, Adrenergic α2B (Homo sapiens, UniProt P18089); assay: Radioligand binding Adrenergic α2B
# T1 sequence (P18089 1-450): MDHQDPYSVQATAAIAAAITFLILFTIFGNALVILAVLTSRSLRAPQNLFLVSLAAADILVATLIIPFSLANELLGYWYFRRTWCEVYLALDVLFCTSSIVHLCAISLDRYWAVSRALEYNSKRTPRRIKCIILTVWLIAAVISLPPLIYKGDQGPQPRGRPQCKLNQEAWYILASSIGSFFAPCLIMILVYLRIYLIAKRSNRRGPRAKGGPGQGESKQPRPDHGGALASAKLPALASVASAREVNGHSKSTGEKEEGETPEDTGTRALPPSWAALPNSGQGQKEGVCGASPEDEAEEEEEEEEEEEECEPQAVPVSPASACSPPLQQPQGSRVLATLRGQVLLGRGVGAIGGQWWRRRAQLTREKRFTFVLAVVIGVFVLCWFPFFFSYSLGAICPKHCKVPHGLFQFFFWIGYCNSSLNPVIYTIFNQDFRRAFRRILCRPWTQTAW
# Adrenergic α2C = biological target: T2, Adrenergic α2C (Homo sapiens, UniProt P18825); assay: Radioligand binding Adrenergic α2C
# T2 sequence (P18825 1-462): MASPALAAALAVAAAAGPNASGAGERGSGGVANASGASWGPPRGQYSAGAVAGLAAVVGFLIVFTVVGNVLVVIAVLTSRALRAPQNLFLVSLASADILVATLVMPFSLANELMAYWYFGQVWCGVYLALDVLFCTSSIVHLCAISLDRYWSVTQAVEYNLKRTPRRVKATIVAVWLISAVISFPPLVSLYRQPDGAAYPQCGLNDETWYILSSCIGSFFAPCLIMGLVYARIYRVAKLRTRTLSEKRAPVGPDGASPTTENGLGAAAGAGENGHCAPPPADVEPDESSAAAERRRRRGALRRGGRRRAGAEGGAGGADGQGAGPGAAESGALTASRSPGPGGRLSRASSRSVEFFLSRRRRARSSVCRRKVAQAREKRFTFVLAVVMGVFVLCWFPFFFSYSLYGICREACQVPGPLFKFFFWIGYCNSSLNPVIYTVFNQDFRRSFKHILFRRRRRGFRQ
# H1 receptor = H1 receptor (Homo sapiens, UniProt P35367); assay: H1 receptor binding
# Experimental: The H1 receptor binding method was carried out in accordance with the method set out in De Backer M D et al. Biochem. Biophys. Res Commun. 197 (3); 1601, 1993.
# rats [2] = assay: Geller-Seifter conflict test; type: in vivo, rat
# Experimental: Anxiolytic activity of 11-piperazin-1-yldibenzo[b,f][1,4]thiazepine was tested in rats according to the Geller-Seifter conflict test. Efficacy results are presented in Table 1 and plasma levels in satellite exposure animals at 0.25 hours after administration are provided in Table 2.
# Subjects: 30 Male Long Evans rats were used. Subjects weighed 350-450 g at the time of testing, and were food restricted to 85% of free feeding weight by post session feeding with approximately 15 g of standard rat chow per day. All animals had free access to water except during experimental testing. Subjects were individually housed throughout the course of the experiment under a 12 hour light/dark cycle.
# Apparatus: Standard 2-lever operant chambers were used (Med Associates). The chambers were fitted with two retractable response levers and a stimulus lamp over each of the 2 levers. A pellet food dispenser delivered 45 mg food pellets, (Bio Serv) to a cup located inside of the chamber below and between the 2 response levers. A lamp at the top and back of the chamber served as houselights. […] All events in the chambers were controlled and monitored by a microprocessor. […]
# Several doses were tested on a given day in different subjects. […] The dependent variables recorded were the rate of responding in unpunished and punished components (total responses/total time under the component), the number of shocks delivered. […]
# [3] = PET scans of primate subjects, brain entry; type: in vivo; details: preliminary PET scans
# Excerpt: The compound of Formula I is a dibenzothiazepine that has shown antidopaminergic activity.
# Chain of H1 receptor (P35367 whole entry): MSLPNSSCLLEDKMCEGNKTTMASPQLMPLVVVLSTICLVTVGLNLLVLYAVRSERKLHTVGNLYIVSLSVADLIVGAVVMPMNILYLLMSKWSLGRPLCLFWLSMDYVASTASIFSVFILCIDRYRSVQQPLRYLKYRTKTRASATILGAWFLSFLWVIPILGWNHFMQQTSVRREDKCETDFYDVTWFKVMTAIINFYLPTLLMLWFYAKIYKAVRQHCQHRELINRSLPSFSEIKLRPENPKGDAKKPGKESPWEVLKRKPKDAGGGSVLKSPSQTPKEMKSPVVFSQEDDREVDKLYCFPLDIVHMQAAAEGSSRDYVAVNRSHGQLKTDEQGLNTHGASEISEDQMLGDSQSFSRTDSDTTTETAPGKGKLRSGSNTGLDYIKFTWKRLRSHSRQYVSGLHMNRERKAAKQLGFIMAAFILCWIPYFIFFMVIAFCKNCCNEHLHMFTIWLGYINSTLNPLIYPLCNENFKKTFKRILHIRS
smiles,measurement,setting,value
"c1ccc2c(c1)N=C(N1CCNCC1)c1ccccc1S2 [11-piperazin-1-yldibenzo[b,f][1,4]thiazepine]",in vivo antipsychotic activity,rats [1],not found to be efficacious
same,in vivo antipsychotic activity,rats [1]; listed as compound of Formula I,not shown to be efficacious
same,IC50,Adrenergic α2B,451 ± 97 nM
same,Ki,Adrenergic α2B,206 ± 44.5 nM
same,n,Adrenergic α2B,0.902 ± 0.055
same,inhibition at 1 µM,Adrenergic α2B; 1 μM,62%
same,IC50,Adrenergic α2C,5640 ± 1010 nM
same,n,Adrenergic α2C,1.1 ± 0.079
same,inhibition at 10 µM,Adrenergic α2C; 10 μM,58%
same,Ki,Adrenergic α2C; read-out: ki,820 ± 146 nM
same,Ki,"Adrenergic α2C; α2C, read-out: Affinity",820 nM
same,Ki,H1 receptor,1.15 nM
same,rates of responding in the punished component,"rats [2]; doses of 2, 5, and 10 mg/kg s.c.",Significant increases
same,Inactive dose,"rats [2]; rats, 15 minute pre-treatment",1 mg/kg s.c.
same,brain entry by PET,[3],reaches the brain
